Source: patent publication US7138361B2, “Herbicidal heterocycles” (E. I. du Pont de Nemours and Company, priority 2000, dated 2006)

How the values were obtained:
Assay type in all cases: in vivo
rice (Oryza saliva) = test: Test C flooded paddy test; conditions: for Rice plant response rating: Flooded Paddy, scale 0 to 100, 0 no effect, 100 complete control; for Plant response rating, Rice: flooded paddy test, scale 0 to 100 (0 no effect, 100 complete control)
Outline: (§1)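 Rice and three paddy weeds were grown to the 2-leaf stage under flooded conditions, then treated and kept in a greenhouse for 12–14 days. Response was rated visually against untreated controls on a 0–100 scale, where 100 is complete control.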

[1] = system: barnyardgrass (Echinochloa crus-galli); test: Test C flooded paddy test; conditions: for Barnyardgrass plant response rating: Flooded Paddy, scale 0 to 100, 0 no effect, 100 complete control; for Plant response rating, Barnyardgrass: flooded paddy test, scale 0 to 100 (0 no effect, 100 complete control)
Outline: as §1

[2] = system: johnsongrass (Sorghum halepense); test: Test C preemergence
Outline: (§2)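 Plants held in greenhouse for 12–14 days post-application are scored by eye against controls on a 0–100 control scale. Application timing: preemergence on sown seed, or postemergence on 2–18 cm plants.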

[3] = system: morningglory (Ipomoea hederacea); test: Test C preemergence
Outline: as §2

[4] = system: pigweed (Amaranthus retroflexus); test: Test C preemergence
Outline: as §2

[5] = system: giant foxtail (Setaria faberii); test: Test C preemergence
Outline: as §2

soybean (Glycine max) = test: Test C preemergence
Outline: as §2

[6] = system: woolly cupgrass (Eriochloa villosa); test: Test C preemergence
Outline: as §2

kochia (Kochia scoparia) = test: Test C preemergence
Outline: as §2

[7] = system: bermudagrass (Cynodon dactylon); test: Test C preemergence
Outline: as §2

corn (Zea mays) = test: Test C preemergence
Outline: as §2

[8] = system: yellow nutsedge (Cyperus esculentus); test: Test C preemergence
Outline: as §2

[9] = system: crabgrass (Digitaria sanguinalis); test: Test C preemergence
Outline: as §2

Sunflower [10] = test: Test C preemergence; conditions: Rate 125 g/ha; scale 0 to 100, 0 no effect, 100 complete control
[11] = system: lambsquarters (Chenopodium album); test: Test C preemergence
Outline: as §2

[12] = system: Surinam grass (Brachiaria decumbens); test: Test C preemergence
Outline: as §2

[13] = system: common ragweed (Ambrosia elatior); test: Test C preemergence
Outline: as §2

[14] = system: velvetleaf (Abutilon theophrasti); test: Test C preemergence
Outline: as §2

Nightshade = test: Test C preemergence
[15] = system: cocklebur (Xanthium strumarium); test: Test C preemergence
Outline: as §2

[16] = system: goosegrass (Eleusine indica); test: Test C preemergence
Outline: as §2

Sunflower [17] = test: Test C preemergence; conditions: Rate 500 g/ha, visual evaluation after 12 to 14 days
[18] = Rate 125 g/ha, scale 0 to 100, 0 no effect, 100 complete control
[19] = preemergence, Rate 62 g/ha, scale 0 to 100
[20] = preemergence, Rate 500 g/ha, visual evaluation after 12 to 14 days
[21] = preemergence, Rate 250 g/ha, scale 0 to 100, 0 no effect, 100 complete control

CC(C)c1cccc(N2CCC(n3ccc(C(C)(C)C)n3)C2=O)c1 (stereo not drawn) [Compound 111]
Rice plant response rating (rice (Oryza saliva); Rate 250 g/ha): 0
Rice plant response rating (rice (Oryza saliva); Rate 500 g/ha): 0
Plant response rating, Rice (rice (Oryza saliva); Rate 62 g/ha): 0
Plant response rating, Rice (rice (Oryza saliva); Rate 125 g/ha): 0
Barnyardgrass plant response rating ([1]; Rate 250 g/ha): 20
Barnyardgrass plant response rating ([1]; Rate 500 g/ha): 30
Plant response rating, Barnyardgrass ([1]; Rate 62 g/ha): 0
Plant response rating, Barnyardgrass ([1]; Rate 125 g/ha): 0
Plant response rating, Johnsongrass [2, 18]: 0
Plant response rating, Johnsongrass [2, 19]: 0
Plant response rating (0 to 100), Johnsongrass [2, 20]: 25
Plant response rating, Johnsongrass [2, 21]: 0
Plant response rating, Morningglory [3, 18]: 0
Plant response rating, Morningglory [3, 19]: 0
Plant response rating (0 to 100), Morningglory [3, 20]: 0
Plant response rating, Morningglory [3, 21]: 0
Plant response rating, Pigweed [4, 18]: 20
Plant response rating, Pigweed [4, 19]: 80
Plant response rating (0 to 100), Pigweed [4, 20]: 50
Plant response rating, Pigweed [4, 21]: 20
Plant response rating, Foxtail, Giant [5, 18]: 0
Plant response rating, Foxtail, Giant [5, 19]: 0
Plant response rating (0 to 100), Foxtail, Giant [5, 20]: 80
Plant response rating, Foxtail, Giant [5, 21]: 30
Plant response rating, Soybean (soybean (Glycine max); [18]): 0
Plant response rating, Soybean (soybean (Glycine max); [19]): 0
Plant response rating (0 to 100), Soybean (soybean (Glycine max); [20]): 0
Plant response rating, Soybean (soybean (Glycine max); [21]): 0
Plant response rating, Cupgrass, Woolly [6, 18]: 20
Plant response rating, Cupgrass, Woolly [6, 19]: 0
Plant response rating (0 to 100), Cupgrass, Woolly [6, 20]: 60
Plant response rating, Cupgrass, Woolly [6, 21]: 60
Plant response rating, Kochia (kochia (Kochia scoparia); [18]): 0
Plant response rating, Kochia (kochia (Kochia scoparia); [19]): 0
Plant response rating (0 to 100), Kochia (kochia (Kochia scoparia); [20]): 0
Plant response rating, Kochia (kochia (Kochia scoparia); [21]): 0
Plant response rating, Bermudagrass [7, 18]: 90
Plant response rating, Bermudagrass [7, 19]: 60
Plant response rating (0 to 100 where 0 is no effect and 100 is complete control), Bermudagrass [7, 20]: 100
Plant response rating, Bermudagrass [7, 21]: 100
Plant response rating, Corn (corn (Zea mays); [18]): 0
Plant response rating, Corn (corn (Zea mays); [19]): 0
Plant response rating (0 to 100), Corn (corn (Zea mays); [20]): 0
Plant response rating, Corn (corn (Zea mays); [21]): 0
Plant response rating, Nutsedge [8, 18]: 0
Plant response rating, Nutsedge [8, 19]: 0
Plant response rating (0 to 100), Nutsedge [8, 20]: 0
Plant response rating, Nutsedge [8, 21]: 0
Plant response rating, Crabgrass [9, 18]: 100
Plant response rating, Crabgrass [9, 19]: 80
Plant response rating (0 to 100), Crabgrass [9, 20]: 100
Plant response rating, Crabgrass [9, 21]: 100
Plant response rating, Sunflower (Sunflower [10]): 0
Plant response rating, Lambsquarters [11, 18]: 85
Plant response rating, Lambsquarters [11, 19]: 70
Plant response rating (0 to 100), Lambsquarters [11, 20]: 100
Plant response rating, Lambsquarters [11, 21]: 100
Plant response rating, Surinam grass [12, 18]: 0
Plant response rating, Surinam grass [12, 19]: 0
Plant response rating (0 to 100), Surinam grass [12, 20]: 10
Plant response rating, Surinam grass [12, 21]: 0
Plant response rating, Ragweed, Common [13, 18]: 0
Plant response rating, Ragweed, Common [13, 19]: 0
Plant response rating (0 to 100), Ragweed, Common [13, 20]: 0
Plant response rating, Ragweed, Common [13, 21]: 0
Plant response rating, Velvetleaf [14, 18]: 0
Plant response rating, Velvetleaf [14, 19]: 0
Plant response rating (0 to 100), Velvetleaf [14, 20]: 0
Plant response rating, Velvetleaf [14, 21]: 0
Plant response rating, Nightshade (Nightshade; Rate 62 g/ha, scale 0 to 100): 0
Plant response rating, Nightshade (Nightshade; [18]): 0
Plant response rating, Nightshade (Nightshade; Rate 250 g/ha, scale 0 to 100, 0 no effect, 100 complete control): 0
Plant response rating, Cocklebur [15, 18]: 0
Plant response rating, Cocklebur [15, 19]: 0
Plant response rating (0 to 100), Cocklebur [15, 20]: 0
Plant response rating, Cocklebur [15, 21]: 0
Plant response rating, Goosegrass [16, 18]: 85
Plant response rating, Goosegrass [16, 19]: 40
Plant response rating (0 to 100), Goosegrass [16, 20]: 100
Plant response rating, Goosegrass [16, 21]: 100
Plant response rating (0 to 100), Sunflower (Sunflower [17]): 0
